# Measurements taken from US8383639B2, “HIV integrase inhibitors” (priority 2009, dated 2013).
# System: recombinant NL-Rluc virus
# Assay: Inhibition of HIV replication (NL-RLuc pseudotype virus, luciferase)
# Format: cell-based
# Conditions: Human immunodeficiency virus 1, read-out: Activity (EC50)
row,Compound,EC50 [nM]
1,"Cn1c(Cc2ccc(F)cc2)nnc1-c1nc2n(c(=O)c1O)CCOC2(C)C [Example 6, 2-(5-(4-Fluorobenzyl)-4-methyl-4H-1,2,4-triazol-3-yl)-3-hydroxy-9,9-dimethyl-6,7-dihydropyrimido[2,1-c][1,4]oxazin-4(9H)-one]",141
2,"CC1(C)OCCn2c1nc(-c1nnc(Cc3ccc(F)cc3)o1)c(O)c2=O [Example 12, 2-(5-(4-Fluorobenzyl)-1,3,4-oxadiazol-2-yl)-3-hydroxy-9,9-dimethyl-6,7-dihydropyrimido[2,1-c][1,4]oxazin-4(9H)-one]",8
3,"CC1(C)OCCn2c1nc(-c1nnc(Cc3ccc(F)cc3)[nH]1)c(O)c2=O [Example 4, 2-(5-(4-Fluorobenzyl)-4H-1,2,4-triazol-3-yl)-3-hydroxy-9,9-dimethyl-6,7-dihydropyrimido[2,1-c][1,4]oxazin-4(9H)-one]",51
4,"Cn1c(Cc2ccc(F)cc2)cnc1-c1nc2n(c(=O)c1O)CCOC2(C)C [Example 2, 2-(5-(4-Fluorobenzyl)-1-methyl-1H-imidazol-2-yl)-3-hydroxy-9,9-dimethyl-6,7-dihydropyrimido[2,1-c][1,4]oxazin-4(9H)-one]",10
5,"CCOc1nc(-c2nc(Cc3ccc(F)cc3)no2)c(O)c(=O)n1C [Example 7, 2-Ethoxy-6-(3-(4-fluorobenzyl)-1,2,4-oxadiazol-5-yl)-5-hydroxy-3-methylpyrimidin-4(3H)-one]",31000
6,"CC1(C)OCCn2c1nc(-c1ncc(Cc3ccc(F)cc3)s1)c(O)c2=O [Example 11, 2-(5-(4-Fluorobenzyl)thiazol-2-yl)-3-hydroxy-9,9-dimethyl-6,7-dihydropyrimido[2,1-c][1,4]oxazin-4(9H)-one]",14
7,"CC1(C)OCCn2c1nc(-c1ncn(Cc3ccc(F)cc3)n1)c(O)c2=O [Example 5, 2-(1-(4-Fluorobenzyl)-1H-1,2,4-triazol-3-yl)-3-hydroxy-9,9-dimethyl-6,7-dihydropyrimido[2,1-c][1,4]oxazin-4(9H)-one]",7
8,"Cn1c(C2CCCC2)nc(-c2nc(Cc3ccc(F)cc3)no2)c(O)c1=O [Example 9, 2-Cyclopentyl-6-(3-(4-fluorobenzyl)-1,2,4-oxadiazol-5-yl)-5-hydroxy-3-methylpyrimidin-4(3H)-one]",22000
9,"CC1(C)OCCn2c1nc(-c1cn(Cc3ccc(F)cc3)cn1)c(O)c2=O [Example 3, 2-(1-(4-Fluorobenzyl)-1H-imidazol-4-yl)-3-hydroxy-9,9-dimethyl-6,7-dihydropyrimido[2,1-c][1,4]oxazin-4(9H)-one]",5
10,"CC1(C)OCCn2c1nc(-c1ncc(Cc3ccc(F)cc3)[nH]1)c(O)c2=O [Example 1, 2-(5-(4-Fluorobenzyl)-1H-imidazol-2-yl)-3-hydroxy-9,9-dimethyl-6,7-dihydropyrimido[2,1-c][1,4]oxazin-4(9H)-one]",7
